Results reported in paper PMC3726007 (Journal of medicinal chemistry, 2009).
“Also recorded” adds a separate entry of the source. Structures can show the parent of a compound that is named as a salt.

What was measured:
[1] = target: DTBZ binding site on VMAT2 (Rattus norvegicus, UniProt Q01827); test: [3H]DTBZ binding assay in rat brain synaptic vesicles; conditions: for fold less potent at DTBZ binding site than comparator: 7 vs 2, 26 vs 25
VMAT2 = VMAT2 (Rattus norvegicus, UniProt Q01827); test: [3H]-DA uptake inhibition assay in isolated synaptic vesicles; conditions: for fold less potent in [3H]-DA uptake inhibition than comparator: 7 vs 2, 26 vs 25; for fold more potent in inhibiting [3H]-DA uptake than in binding to the DTBZ binding site: uptake vs DTBZ binding; for fold more potent in [3H]-DA uptake inhibition than S-configured analogs: 18 and 19 vs 14 and 15
water solubility = assay type: physicochemical; conditions: qualitative statement
[2] = system: α4β2* nicotinic acetylcholine receptors (nAChRs); conditions: cited from earlier work
[3] = system: methamphetamine self-administration; conditions: animal models; cited from earlier work

DTBZ binding site on VMAT2, sequence (Q01827 whole entry): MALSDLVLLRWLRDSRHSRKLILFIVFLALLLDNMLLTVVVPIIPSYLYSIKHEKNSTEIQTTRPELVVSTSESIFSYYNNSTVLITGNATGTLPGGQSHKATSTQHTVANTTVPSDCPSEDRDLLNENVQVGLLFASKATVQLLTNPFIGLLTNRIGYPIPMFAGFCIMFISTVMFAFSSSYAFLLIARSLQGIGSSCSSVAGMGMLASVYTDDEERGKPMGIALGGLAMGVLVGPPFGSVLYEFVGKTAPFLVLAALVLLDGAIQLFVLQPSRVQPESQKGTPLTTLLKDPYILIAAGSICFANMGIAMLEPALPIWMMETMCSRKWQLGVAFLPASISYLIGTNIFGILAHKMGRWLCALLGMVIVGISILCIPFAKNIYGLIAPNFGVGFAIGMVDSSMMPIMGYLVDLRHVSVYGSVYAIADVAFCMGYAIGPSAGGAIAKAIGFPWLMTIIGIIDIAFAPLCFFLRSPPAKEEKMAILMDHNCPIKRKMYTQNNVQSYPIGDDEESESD
VMAT2, sequence (Q01827 whole entry): as above

With `CN1[C@H](CCc2ccccc2)CC[C@@H]1CCc1ccccc1` [Compound 7, 1-Methyl-cis-2,5-di-(2-phenethyl)-pyrrolidine hydrochloride] the “fold less potent at DTBZ binding site than comparator” value [1] was “about 10 fold”, the “fold less potent in [3H]-DA uptake inhibition than comparator” value (VMAT2) was 10 fold and the “fold more potent in inhibiting [3H]-DA uptake than in binding to the DTBZ binding site” value (from here on “fold more potent in inhibiting”) (VMAT2) was “about 30 fold”.

In the case of `c1ccc(C[C@H]2CC[C@@H](Cc3ccccc3)N2)cc1` [Compound 22, cis-2,5-Di(2-benzyl)-pyrrolidine hydrochloride], the water solubility (water solubility) is reported as “water-soluble”.

In the case of `c1ccc(CC[C@H]2CCC[C@@H](CCc3ccccc3)N2)cc1` [Compound 3, reference compound], the “fold more potent in inhibiting” value (VMAT2) is reported as “about 100 fold”.

For `c1ccc(CCC[C@@H]2CC[C@H](CCCc3ccccc3)N2)cc1` [Compound 25, Cis-2,5-di(3-phenylpropyl)-pyrrolidine hydrochloride], the “fold more potent in inhibiting” value (VMAT2) was “about 20 fold”.

In the case of `c1ccc(CC[C@H]2CC[C@H](CCc3ccccc3)N2)cc1` [Compound 10, (2S,5S)-di-(2-phenethyl)-pyrrolidine hydrochloride], the “fold more potent at DTBZ binding site than N-methyl derivative” value ([1]; 10 vs 11) is reported as “about 10 fold”.

With `c1ccc(CC[C@@H]2CC[C@H](CCc3ccccc3)N2)cc1` [Compound 6, cis-2,5-Di-(2-phenethyl)-pyrrolidine hydrochloride] the “fold more potent in inhibiting” value (VMAT2) was “about 100 fold”.

For `OC[C@@H](c1ccccc1)N1[C@@H](CCc2ccccc2)CC[C@@H]1CCc1ccccc1` [Compound 19, (2′R)-2-(2S,5S)-2,5-Di(2-phenethyl)-tetrahydro-1H-1-pyrrolyl-2-phenylethan-1-ol], the “fold more potent in [3H]-DA uptake inhibition than S-configured analogs” value (VMAT2) was “about 10 fold”.

For `CN1[C@@H](CCc2ccccc2)CCC[C@H]1CCc1ccccc1` [Compound 2, cis-N-methyl-2,6-diphenethylpiperidine], the “affinity for α4β2* nAChRs” value [2] is given as “little affinity” and the effect on self-administration [3] is given as “decreases methamphetamine self-administration; also recorded: does not itself support self-administration”.

With `OC[C@@H](c1ccccc1)N1[C@H](CCc2ccccc2)CC[C@@H]1CCc1ccccc1` [Compound 18, (2′R)-2-(2S,5R)-2,5-Di-(2-phenethyl)-tetrahydro-1H-1-pyrrolyl-2-phenylethan-1-ol] the “fold more potent in [3H]-DA uptake inhibition than S-configured analogs” value (VMAT2) was “about 10 fold”.

For `CN1[C@@H](CC(=O)c2ccccc2)CCC[C@H]1C[C@H](O)c1ccccc1` [Compound 1, lobeline], the “affinity for α4β2* nAChRs” value [2] is listed as “high potency”.

In the case of `CN1[C@H](CCCc2ccccc2)CC[C@@H]1CCCc1ccccc1` [Compound 26, 1-Methyl-cis-2,5-di(3-phenylpropyl)-pyrrolidine hydrochloride], the “fold less potent at DTBZ binding site than comparator” value [1] is reported as 10 fold, the “fold less potent in [3H]-DA uptake inhibition than comparator” value (VMAT2) is reported as “about 10 fold” and the “fold more potent in inhibiting” value (VMAT2) is reported as “about 20 fold”.
